Source: ChEMBL document CHEMBL1128533, “Synthesis and ligand binding study of 3 beta-(4'-substituted phenyl)-2 beta-(heterocyclic)tropanes” (J Med Chem, 1995)

Key:
[1] = target: Norepinephrine transporter (Rattus norvegicus, UniProt Q9WTR4); assay: Binding affinity towards Norepinephrine transporter was determined using NE[3H]Nisoxetine as radioligand
[2] = target: Sodium-dependent dopamine transporter (Rattus norvegicus, UniProt P23977); assay: Binding affinity towards dopamine transporter was determined using DA[3H]WIN-35428 as radioligand
[3] = Ratio of IC50 of norepinephrine to dopamine
[4] = target: Monoamine transporters; serotonin & dopamine (Homo sapiens) (UniProt P31645+Q01959); assay: Ratio of IC50 of 5-hydroxy tryptamine to dopamine; type: protein assay
[5] = target: Sodium-dependent serotonin transporter (Rattus norvegicus, UniProt P31652); assay: Binding affinity towards Serotonin transporter was determined using 5-HT [3H]paroxetine as radioligand
Chain of Sodium-dependent serotonin transporter (P31652 whole entry): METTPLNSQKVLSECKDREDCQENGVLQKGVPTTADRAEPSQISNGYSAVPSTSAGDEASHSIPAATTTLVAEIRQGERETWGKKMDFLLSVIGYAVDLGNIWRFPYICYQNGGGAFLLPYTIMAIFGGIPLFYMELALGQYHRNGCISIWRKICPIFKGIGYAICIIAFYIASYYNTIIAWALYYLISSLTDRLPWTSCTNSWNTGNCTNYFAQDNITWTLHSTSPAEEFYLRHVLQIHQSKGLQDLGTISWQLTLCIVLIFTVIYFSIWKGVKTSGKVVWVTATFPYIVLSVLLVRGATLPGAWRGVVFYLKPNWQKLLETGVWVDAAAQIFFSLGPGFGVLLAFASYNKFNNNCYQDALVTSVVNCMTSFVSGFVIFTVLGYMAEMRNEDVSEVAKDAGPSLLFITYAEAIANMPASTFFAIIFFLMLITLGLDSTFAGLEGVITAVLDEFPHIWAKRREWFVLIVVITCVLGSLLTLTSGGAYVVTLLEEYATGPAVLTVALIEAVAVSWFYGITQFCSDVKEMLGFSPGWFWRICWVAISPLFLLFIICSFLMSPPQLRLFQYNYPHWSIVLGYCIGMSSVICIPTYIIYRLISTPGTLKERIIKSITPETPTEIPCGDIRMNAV

Chain of Sodium-dependent dopamine transporter (P23977 whole entry): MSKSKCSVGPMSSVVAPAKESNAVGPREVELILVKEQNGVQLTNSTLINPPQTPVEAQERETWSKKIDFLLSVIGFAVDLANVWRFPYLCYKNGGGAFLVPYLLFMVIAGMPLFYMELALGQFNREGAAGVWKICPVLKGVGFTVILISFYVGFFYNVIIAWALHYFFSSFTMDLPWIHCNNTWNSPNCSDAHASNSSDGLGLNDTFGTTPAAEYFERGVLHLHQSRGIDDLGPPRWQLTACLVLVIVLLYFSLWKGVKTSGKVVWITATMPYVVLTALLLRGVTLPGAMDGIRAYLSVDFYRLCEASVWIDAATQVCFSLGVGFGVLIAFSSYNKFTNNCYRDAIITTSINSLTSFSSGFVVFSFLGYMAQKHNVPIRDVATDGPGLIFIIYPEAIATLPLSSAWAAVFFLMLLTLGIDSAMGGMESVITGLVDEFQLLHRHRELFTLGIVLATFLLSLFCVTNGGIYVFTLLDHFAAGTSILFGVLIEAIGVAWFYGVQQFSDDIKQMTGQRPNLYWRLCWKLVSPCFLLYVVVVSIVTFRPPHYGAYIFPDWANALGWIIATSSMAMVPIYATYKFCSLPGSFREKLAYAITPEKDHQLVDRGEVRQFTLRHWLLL
Chain of Norepinephrine transporter (Q9WTR4 whole entry): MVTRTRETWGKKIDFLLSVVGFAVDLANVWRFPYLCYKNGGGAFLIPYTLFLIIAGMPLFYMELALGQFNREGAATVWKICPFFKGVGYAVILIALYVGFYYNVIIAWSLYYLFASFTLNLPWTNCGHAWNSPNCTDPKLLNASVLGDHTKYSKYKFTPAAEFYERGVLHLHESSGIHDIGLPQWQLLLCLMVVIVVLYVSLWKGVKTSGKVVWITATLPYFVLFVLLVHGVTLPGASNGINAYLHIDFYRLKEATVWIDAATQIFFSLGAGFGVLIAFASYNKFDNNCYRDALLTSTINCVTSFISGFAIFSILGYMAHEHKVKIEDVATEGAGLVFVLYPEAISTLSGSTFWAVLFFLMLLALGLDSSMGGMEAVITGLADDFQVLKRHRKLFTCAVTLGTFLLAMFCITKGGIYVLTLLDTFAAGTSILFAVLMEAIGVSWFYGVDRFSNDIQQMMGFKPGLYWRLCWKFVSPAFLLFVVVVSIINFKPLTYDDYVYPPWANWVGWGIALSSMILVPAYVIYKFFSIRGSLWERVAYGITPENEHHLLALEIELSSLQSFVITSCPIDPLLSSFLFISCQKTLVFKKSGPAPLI
Chain of Monoamine transporters; serotonin & dopamine (Homo sapiens) (P31645 whole entry, looked up): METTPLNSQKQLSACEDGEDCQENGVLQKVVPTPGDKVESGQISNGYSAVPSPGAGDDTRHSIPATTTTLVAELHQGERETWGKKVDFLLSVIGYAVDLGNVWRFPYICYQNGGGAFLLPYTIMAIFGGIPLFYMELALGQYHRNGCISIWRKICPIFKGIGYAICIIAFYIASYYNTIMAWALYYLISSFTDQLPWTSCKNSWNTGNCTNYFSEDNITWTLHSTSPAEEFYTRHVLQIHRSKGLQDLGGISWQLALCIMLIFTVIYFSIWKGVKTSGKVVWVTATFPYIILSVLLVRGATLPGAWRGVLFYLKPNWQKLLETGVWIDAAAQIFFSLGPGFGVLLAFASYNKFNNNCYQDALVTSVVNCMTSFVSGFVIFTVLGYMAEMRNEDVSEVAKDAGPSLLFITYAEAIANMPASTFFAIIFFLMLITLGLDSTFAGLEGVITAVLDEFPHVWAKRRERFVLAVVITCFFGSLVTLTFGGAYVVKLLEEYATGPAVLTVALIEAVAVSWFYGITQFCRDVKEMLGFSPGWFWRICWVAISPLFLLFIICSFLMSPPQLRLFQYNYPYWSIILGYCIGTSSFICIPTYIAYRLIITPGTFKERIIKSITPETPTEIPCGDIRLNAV
Chain of Monoamine transporters; serotonin & dopamine (Homo sapiens) (Q01959 whole entry, looked up): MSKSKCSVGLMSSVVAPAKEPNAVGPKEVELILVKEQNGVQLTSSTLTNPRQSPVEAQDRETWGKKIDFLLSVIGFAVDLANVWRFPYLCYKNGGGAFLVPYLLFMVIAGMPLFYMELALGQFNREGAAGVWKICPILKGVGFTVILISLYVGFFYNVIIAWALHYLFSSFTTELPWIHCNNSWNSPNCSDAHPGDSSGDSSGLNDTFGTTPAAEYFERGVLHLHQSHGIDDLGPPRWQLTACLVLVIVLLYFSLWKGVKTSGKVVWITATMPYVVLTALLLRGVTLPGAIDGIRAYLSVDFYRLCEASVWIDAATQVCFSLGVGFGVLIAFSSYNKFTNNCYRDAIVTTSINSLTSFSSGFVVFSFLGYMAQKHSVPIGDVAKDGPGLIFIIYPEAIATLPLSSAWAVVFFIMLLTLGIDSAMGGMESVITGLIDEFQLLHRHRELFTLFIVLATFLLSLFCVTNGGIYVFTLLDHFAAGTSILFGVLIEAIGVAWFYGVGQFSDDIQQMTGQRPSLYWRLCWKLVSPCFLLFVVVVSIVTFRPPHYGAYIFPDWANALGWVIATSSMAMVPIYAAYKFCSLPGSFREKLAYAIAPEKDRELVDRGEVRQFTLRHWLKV

| SMILES | IC50 [1] [nM] | IC50 [2] [nM] | Ratio [3] | Ratio [4] | IC50 [5] [nM] |
| --- | --- | --- | --- | --- | --- |
| CN1C2CCC1C(c1nnc(-c3ccccc3)o1)C(c1ccc(Cl)cc1)C2 (centres undefined) | 929 | 12.6 | 74 | 262 | – |
| CN1C2CCC1C(c1nc(-c3ccccc3)no1)C(c1ccc(Cl)cc1)C2 (centres undefined) | 245 | 1.62 | 151 | 120 | – |
| CN1C2CC[C@@H]1C[C@H](c1ccc(Cl)cc1)C2c1cc(-c2ccccc2)no1 (some centres undefined) | 504 | 1.28 | 394 | 1890 | 2420 |
| CN1C2CCC1C(c1ncc(-c3ccccc3)o1)C(c1ccc(Cl)cc1)C2 (centres undefined) | 496 | 19.7 | 25 | 57 | – |
| CN1C2CCC1C(C(=O)Oc1ccccc1)C(c1ccc(Cl)cc1)C2 (centres undefined) | – | – | 1490 | 1180 | – |
